Where two headings read alike, the source gives them in different places.
What was measured:
[1] = system: tumor cell lines; assay: In vitro growth assays, tumor cell lines; format: cell-based
Method: The assay measures protein content of acid-fixed cells using the counterion binding dye sulforhodamine B (SRB, Sigma). […] For other cell lines, the cells (2000 cells/well in 100 μL) were introduced into wells immediately after dispensing the drug solutions. After 4 days (37° C., 5% CO2) the monolayers were washed 3 times with PBS and fixed with 200 μL ice-cold 10% TCA (Fisher Scientific), and kept at 4° C. for 60 min. The TCA was removed and the fixed monolayers were washed 5 times with tap water and allowed to dry completely at room temperature on absorbent paper. The cellular protein was stained for 10 min with 100 μL 0.4% SRB dissolved in 1% acetic acid. After 5 washes with tap water, the dye was solubilized in 10 mM Tris base (100 μL per well) and absorbance read at 570 nm on a Dynatech plate reader model MR5000. Growth inhibition data are expressed as a percentage of absorbance detected in control wells which were treated with 0.4% DMSO alone. DMSO controls were not different from cells grown in regular growth medium. IC50 values were determined using a four parameter curve fit function.
For K562, DlB, L1210, 7TDl, T27A, and Colo320 DM cells, an MTT assay was used to assess cell growth. […] The absorbance was determined at 570 nm wavelength with a reference wavelength of 630 nm using an ELISA plate reader.

[2] = Method: (§1) Plasma was prepared and frozen in liquid nitrogen. Tissues and organs were resected and immediately frozen in liquid nitrogen. After the addition of an internal standard, plasma samples were acidified with HCl and extracted with acetonitrile. The acetonitrile fraction was evaporated to dryness in a vacuum centrifuge with heating and redissolved in methanol. Tissue and organ samples were homogenized according to the weight ratio of 1:5 (w:v) in 50 mM Tris-HCl, pH 7.4, at 20,000 rev/min, using a tissue homogenizer (Brinkmann Polytron Model PT3000). After the addition of an internal standard, the homogenate was acidified with HCl and then extracted with acetonitrile. The acetonitrile fraction was then extracted with an equal volume of diethyl ether. The ether fraction was evaporated to dryness in a vacuum centrifuge with heating and redissolved in methanol.
(§2) Samples for HPLC analysis were injected onto a Hewlett Packard Hypersil 5-μm C18 cartridge column (100×4.6 mm). The mobile phase was methanol:35 mM KH2 PO4 (pH 4.5) 55:45 containing 4 mM triethylamine. The flow rate was 1.2 mL/min. The compounds were monitored by UV absorption at 254 nm using a Hewlett-Packard diode-array detector (HP Model 1090). Plasma and tissue concentrations were determined from standard curves using peak area for quantitation. […] The internal standard used was 5-methyl-pyrazole-4-carboxylic acid-(4-trifluoromethyl)-anilide.
(§3) Table XXII. […] Plasma and brain samples were prepared and analyzed by HPLC as described in Appendix 6. All results were calculated by the method of internal standardization. NT= not tested, ND= not detected.

[3] = in vivo; set-up: species or system rat; details: IP A10 80 mg/kg single dose
Method: as §1, §2, §3

[4] = system: NIH3T3 cells overexpressing the human PDGF-b receptor; assay: PDGF-stimulated cell cycle progression, flow cytometry; format: cell-based, mouse
Method: NIH3T3 mouse fibroblasts overexpressing the human PDGF-β receptor were seeded in DMEM supplemented with 10% CS and 2 mM GLN. Cells were grown to about 80% confluence and then treated overnight in serum-free medium (DMEM, 2 mM GLN, 2 mM NEAA, 2 mM NaPyr, and 2 mM HEPES). […] Cells were then collected, strained and analyzed by flow cytometry for DNA content.
The percentage of cells in the S phase of the cell cycle was determined by flow cytometry.
The cells were analyzed for DNA content by flow cytometry.

[5] = format: in vivo, mouse; details: IP A10 40 mg/kg single dose
Method: as §1
Samples for HPLC analysis were injected onto a Hewlett Packard Hypersil 5-μm C18 cartridge column (100×4.6 mm). […] The compounds were monitored by UV absorption at 254 nm using a Hewlett-Packard diode-array detector (HP Model 1090). Plasma and tissue concentrations were determined from standard curves using peak area for quantitation. […]
as §3

[6] = system: T98G cells; assay: PDGF-stimulated DNA synthesis, T98G cells (3H-thymidine); format: cell-based, human
Method: T98G cells in log phase growth were transferred to 96-well dishes at 20,000 cells in 200 μL of serum-containing growth medium. After an overnight attachment period, the monolayers were washed twice with 200 μL MCDB 105 medium and the cells were cultured in 200 μL serum-free MCDB 105 medium for 24 hr. […] The plates were incubated at 37° C. at ambient CO2 for approximately 18 hr. ^3 H-thymidine (Amersham, 5 Ci/mmol) was added to each well to yield a final concentration of 5 μCi/mL and the plates were returned to 37° C. incubator. After 4 hr the medium was removed, the plates were put onto ice, and washed twice with 200 μL ice-cold PBS per well. Radioactivity incorporated into DNA was separated from unincorporated ^3 H-thymidine by precipitation with 100 μL ice-cold TCA for 10 min on ice. […] Six mL of cocktail (Ready Safe, Beckman) was added and radioactivity quantified in a Beckman liquid scintillation counter model LS6000SC. […]
The effect on basal ^3 H-thymidine incorporation was determined in the absence of PDGF. […] Radioactivity incorporated into DNA was separated from unincorporated ^3 H-thymidine by precipitation with […] ice-cold TCA for 10 minutes. […] Six ml of cocktail (Ready Safe, Beckman) was added and radioactivity quantified in a Beckman liquid scintillation counter model LS6000 SC.

[7] = Solubility; details: water
Excerpt: PBTE consists of a solution of 3% w/v benzyl alcohol, 8% w/v polysorbate 80, and 65% w/v polyethylene glycol (MW=300 daltons) in absolute ethanol. PBTE:D5W consists of PBTE diluted 1:1 in a solution of 5% dextrose in water. […] The solubility of the other compounds described herein can be obtained using standard techniques.

[8] = system: C6 glioma cells; assay: C6 glioma SC xenograft in mice; format: in vivo
In short: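 C6 (3×10^6) or SKOV-3 (1×10^7) cells in PBS were implanted into the hind flank of female Balb/c nu/nu mice on Day 0; U87MG and U118MG went into athymic mice. Tumors were caliper-measured over 3–6 weeks, with volume as length×width×height. P values came from Student's t-test.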

In the case of CC(O)=C(C#N)C(=O)Nc1ccc(C(F)(F)F)cc1 [Compound B11, 2-cyano-3-hydroxy-N-[4-(trifluoromethyl)phenyl]-2-butenamide], the “potency compared to A10, in vitro growth assays” value [1] is reported as “equipotent to A10”, the “brain level, athymic mice compared to Wistar rats” value ([2]; 2 hr post-dose) is reported as 11 times and the “brain level, athymic mice compared to Wistar rats” value ([2]; 4 hr post-dose) is reported as 6.5 times. For the same compound, the “% Increase, multiple vs single dose” value ([2]; A10 20 mg/kg) was 64%, the “% Increase, multiple vs single dose” value ([2]; A10 40 mg/kg) was 69% and the “time detected in plasma” value ([2]; IP A10 40 mg/kg single dose) was “more than 48 hr”. The “time detected in plasma” value ([2]; IP A10 […] mg/kg four weekly treatments, after last dose) was 48 h, the “time detected in plasma” value ([2]; IP A10 […] mg/kg single dose) was “more than 48 hr” and the “time detected in plasma” value [3] was “greater than 24 hr”. For the same compound, the “potency compared to A10, PDGF-stimulated cell cycle progression” value [4] was “equipotent”, the “time detected in plasma” value [5] was “more than 48 hr” and the “potency compared to A10, PDGF-stimulated DNA synthesis” value [6] was “equipotent in inhibiting PDGF-stimulated DNA synthesis”. The solubility in water [7] was “not very soluble in water”, the “inhibition of tumor growth compared with A10” value ([8]; B11 15 mg/kg/day (DMSO) vs A10 15 mg/kg/day (DMSO)) was “to the same extent” and the “potency compared to A10, growth of C6 tumors in vivo” value ([8]; rat, in vivo) was “equipotent in the inhibition of the growth of C6 tumors in vivo”.

From patent publication US6331555A, “Treatment of platelet derived growth factor related disorders such as cancers” (priority 1999, dated 2001)
